For six compounds, IC50, AC50 and EC50 results are on record in ChEMBL document CHEMBL1201862, “PubChem BioAssay data set” (2004).

Activity calls are given as the source filed them. Some results are limits rather than exact numbers.

Usually IC50 stands for the concentration that gives 50% inhibition. By AC50 is commonly meant the midpoint of the concentration-response curve, whichever way the signal moves. One may read the EC50 as the concentration giving half of the maximal effect.

Test [1] can be described thus: Late stage assay provider results from the probe development effort to identify selective inhibitors of heat shock protein 90 (HSP90): Absorbance-based cell proliferation assay in SKBR3 cells. The format is functional. The conditions noted are these: SK-BR-3.
The nature of test [2]: Late stage assay provider results from the probe development effort to identify selective inhibitors of heat shock protein 90 (HSP90): Absorbance-based cell proliferation assay in MCF7 cells. It counts as functional.
Test [3] can be described thus: MITF Orthogonal Assay: SK-MEL-5 CTG Assay Measured in Cell-Based System Using Plate Reader - 2084-02_Inhibitor_Dose_DryPowder_Activity_Set7. It counts as functional.
Test [4] in a line: TRPM1 promoter luciferase reporter signal decrease, dose response, MITF inhibitor project, cell-based, SK-MEL-5, dry powder, set 8 (AID 624430). The format is functional.
A short description of test [5]: MITF: Counter assay: A375 proliferation Measured in Cell-Based System Using Plate Reader - 2084-03_Inhibitor_Dose_DryPowder_Activity_Set8. The format is functional. The conditions noted are these: A-375.
Test [6] deals with Endoplasmic reticulum aminopeptidase 1 (Homo sapiens, UniProt Q9NZ08). The test is described as follows: ERAP1 aminopeptidase inhibitors, dose response, biochemical, cherry-pick, set 2, plate reader (AID 743314).
Test [7] concerns the target Endoplasmic reticulum aminopeptidase 2 (Homo sapiens, UniProt Q6P179). The test is described as follows: ERAP2 aminopeptidase inhibitors, dose response, selectivity assay for selective ERAP1 modulator project, biochemical, fluorescence plate reader, cherry-picked, set 2 (AID 743320).
The target of test [8] is Metabotropic glutamate receptor 5 (Rattus norvegicus, UniProt P31424). Nature of the test: Identification of a glycine sulfonamide based non-MPEP site positive allosteric potentiator (PAM) of mGlu5 (calcium_assay). It counts as functional.
Sequence of Metabotropic glutamate receptor 5 (P31424 whole entry): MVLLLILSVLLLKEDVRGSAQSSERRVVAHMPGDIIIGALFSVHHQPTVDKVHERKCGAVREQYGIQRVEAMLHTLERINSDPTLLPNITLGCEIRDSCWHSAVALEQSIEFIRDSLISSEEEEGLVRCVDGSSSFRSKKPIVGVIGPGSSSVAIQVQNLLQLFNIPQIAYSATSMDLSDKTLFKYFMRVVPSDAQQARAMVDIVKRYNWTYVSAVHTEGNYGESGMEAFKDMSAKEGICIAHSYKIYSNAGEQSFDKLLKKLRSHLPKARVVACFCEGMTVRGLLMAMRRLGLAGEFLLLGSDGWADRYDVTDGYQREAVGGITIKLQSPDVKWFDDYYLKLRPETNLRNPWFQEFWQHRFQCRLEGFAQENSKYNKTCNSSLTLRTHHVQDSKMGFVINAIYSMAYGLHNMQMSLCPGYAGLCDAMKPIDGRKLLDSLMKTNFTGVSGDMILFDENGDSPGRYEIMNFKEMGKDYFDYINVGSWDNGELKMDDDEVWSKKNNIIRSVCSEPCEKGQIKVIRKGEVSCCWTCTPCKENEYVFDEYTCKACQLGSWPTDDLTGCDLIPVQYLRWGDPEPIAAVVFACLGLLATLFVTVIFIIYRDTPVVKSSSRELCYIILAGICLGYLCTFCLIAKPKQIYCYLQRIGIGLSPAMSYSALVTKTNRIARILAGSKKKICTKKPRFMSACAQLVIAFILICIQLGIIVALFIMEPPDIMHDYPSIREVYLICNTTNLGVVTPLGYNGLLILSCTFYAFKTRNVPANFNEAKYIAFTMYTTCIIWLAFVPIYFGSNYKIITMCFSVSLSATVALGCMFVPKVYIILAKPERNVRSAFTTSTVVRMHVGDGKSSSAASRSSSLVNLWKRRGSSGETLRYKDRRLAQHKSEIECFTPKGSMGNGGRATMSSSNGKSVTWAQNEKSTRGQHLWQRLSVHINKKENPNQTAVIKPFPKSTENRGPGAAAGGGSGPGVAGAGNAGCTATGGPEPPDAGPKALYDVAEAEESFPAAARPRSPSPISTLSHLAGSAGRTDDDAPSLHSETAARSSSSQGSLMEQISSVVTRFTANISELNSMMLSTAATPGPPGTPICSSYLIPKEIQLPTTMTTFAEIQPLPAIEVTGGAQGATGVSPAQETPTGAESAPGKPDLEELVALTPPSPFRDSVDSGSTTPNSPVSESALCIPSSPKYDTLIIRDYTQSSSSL
Test [9] deals with T1, Oxysterols receptor LXR-beta (Homo sapiens, UniProt P55055).
T1 sequence (P55055 whole entry): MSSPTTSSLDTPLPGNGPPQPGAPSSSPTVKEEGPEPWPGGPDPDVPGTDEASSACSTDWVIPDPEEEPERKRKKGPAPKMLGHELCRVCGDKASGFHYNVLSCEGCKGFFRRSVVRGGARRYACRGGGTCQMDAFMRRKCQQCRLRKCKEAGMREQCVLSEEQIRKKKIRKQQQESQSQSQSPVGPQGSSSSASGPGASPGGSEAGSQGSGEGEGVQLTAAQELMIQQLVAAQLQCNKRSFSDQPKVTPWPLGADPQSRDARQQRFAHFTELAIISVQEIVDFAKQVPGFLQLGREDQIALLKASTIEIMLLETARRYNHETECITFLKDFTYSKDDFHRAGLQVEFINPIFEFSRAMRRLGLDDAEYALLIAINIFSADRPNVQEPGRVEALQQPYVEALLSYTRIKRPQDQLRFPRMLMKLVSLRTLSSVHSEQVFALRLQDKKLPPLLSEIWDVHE
The format is functional, cell-based.

A short description of test [10]: cells.
For test [11], the target named is T2, Heat shock factor protein 1 (Mus musculus, UniProt P38532).
T2 sequence (P38532 whole entry): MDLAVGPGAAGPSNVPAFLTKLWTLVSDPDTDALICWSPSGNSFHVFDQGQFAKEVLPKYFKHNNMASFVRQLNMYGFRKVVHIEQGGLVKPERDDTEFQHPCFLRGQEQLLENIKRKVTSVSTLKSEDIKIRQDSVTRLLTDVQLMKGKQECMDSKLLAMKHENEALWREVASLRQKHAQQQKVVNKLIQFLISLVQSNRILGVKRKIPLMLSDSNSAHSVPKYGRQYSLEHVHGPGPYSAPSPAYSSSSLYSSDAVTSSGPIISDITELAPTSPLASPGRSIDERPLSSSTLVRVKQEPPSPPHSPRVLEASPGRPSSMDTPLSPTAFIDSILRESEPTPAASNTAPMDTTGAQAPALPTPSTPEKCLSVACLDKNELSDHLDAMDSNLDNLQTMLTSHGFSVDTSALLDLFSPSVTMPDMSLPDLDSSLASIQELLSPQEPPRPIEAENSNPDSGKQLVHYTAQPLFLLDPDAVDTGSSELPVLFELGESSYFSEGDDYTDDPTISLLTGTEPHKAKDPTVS
The test is described as follows: HSF1 potentiators in luciferase reporter cells, confirmation, cell-based, NIH3T3, luminescence, dose retest (AID 435004).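 Further: stress induced by proteasome inhibitor MG132 added 30 min after compound; luciferase reporter driven by HSF1 response element in NIH3T3 cells; actives raise luminescence as potentiators of the MG132 stress response.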 The format is functional. A general note: Reporter assays use an easily measured gene product as a stand-in for the process of interest.

For test [12], the target named is Nonstructural protein 1 (Influenza A virus, UniProt Q194T2). The format is functional, Influenza A virus (A/California/07/2009(H1N1)).
Sequence of Nonstructural protein 1 (Q194T2 whole entry): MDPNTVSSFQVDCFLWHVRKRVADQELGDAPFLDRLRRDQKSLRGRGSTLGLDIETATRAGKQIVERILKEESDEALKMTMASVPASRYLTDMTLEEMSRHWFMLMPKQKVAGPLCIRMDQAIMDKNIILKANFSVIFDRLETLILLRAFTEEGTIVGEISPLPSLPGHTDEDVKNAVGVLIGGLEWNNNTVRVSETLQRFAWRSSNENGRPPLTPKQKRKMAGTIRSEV
Test [13] addresses T3, Kappa-type opioid receptor (Homo sapiens, UniProt P41145). The format is functional.
The nature of test [14]: cells. The format is functional, cell-based.
A short description of test [15]: HEK293T cytotoxicity, dose response, cytotoxicity control for miR-122 modulator project, cell-based, activator set, cherry-pick (AID 720690).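 Further: HEK293T human cells scored for general mammalian cytotoxicity.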 The format is functional.
A short description of test [16]: HEK293T cytotoxicity, dose response, cytotoxicity control for miR-122 modulator project, cell-based, inhibitor set, cherry-pick, set 2 (AID 720697). It counts as functional.
The nature of test [17]: cytotoxicity toward DRD oncogenic fibroblasts, dose response, cell-based, non-viral oncogenic, luminescence (AID 1934). The format is functional. The conditions noted are these: Homo sapiens.
Test [18] can be described thus: miR-122 activators in hepatoma reporter cells, dose response, cell-based, Huh7 psiCHECK-miR122, Renilla luciferase, cherry-picked (AID 651956).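 Further: huh7 hepatoma cells stably carrying a psiCHECK-2 miR-122 sensor plasmid; renilla luciferase signal reporting endogenous miR-122 activity after 48 h compound exposure.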 The format is functional.
Test [19] has as its target Photoreceptor-specific nuclear receptor (Homo sapiens, UniProt Q9Y5X4). The format is functional, cell-based.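 Further: CHO-S cells with Gal4-NCOR and VP16-NR2E3 two-hybrid luciferase reporter.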
Test [20] concerns BJ. The test is described as follows: cells. The conditions noted are these: Homo sapiens. The format is functional, cell-based.
Test [21] relates to BJ. Nature of the test: cytotoxicity toward BJ-TERT-LT-ST fibroblasts, dose response, cell-based, RAS-independent, luminescence (AID 1935).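 Further: BJ fibroblasts immortalized with TERT plus LT and ST oncogenes.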 The format is functional. The conditions noted are these: Homo sapiens.
Test [22] relates to Streptococcus sp. 'group A'. Nature of the test: growth inhibition of control SK(-) GAS strain, dose response, counter-screen for streptokinase expression inhibitor project, luminescence, kanamycin, BacTiterGlo, confirmation (AID 1900). It counts as functional, organism-based. (In general: A counterscreen serves to expose hits that act by an unwanted route or on another target.)

Test [23] concerns the target T4, Beta-galactosidase (Escherichia coli, UniProt Q8VNN2). It counts as functional.
In test [24] the target is T4, Beta-galactosidase. Nature of the test: PubChem AID 485352. The format is functional.
Test [25] has as its system Streptococcus. The test is described as follows: Group A Streptococcus viability loss, dose response, counter-screen for streptokinase expression inhibitor project, luminescence, BacTiterGlo (AID 1915).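 Further: potency for reduction of bacterial viability or growth.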 It counts as functional, organism-based.
For test [26], the target named is T5, Type-1 angiotensin II receptor (Homo sapiens, UniProt P30556).
T5 sequence (P30556 whole entry): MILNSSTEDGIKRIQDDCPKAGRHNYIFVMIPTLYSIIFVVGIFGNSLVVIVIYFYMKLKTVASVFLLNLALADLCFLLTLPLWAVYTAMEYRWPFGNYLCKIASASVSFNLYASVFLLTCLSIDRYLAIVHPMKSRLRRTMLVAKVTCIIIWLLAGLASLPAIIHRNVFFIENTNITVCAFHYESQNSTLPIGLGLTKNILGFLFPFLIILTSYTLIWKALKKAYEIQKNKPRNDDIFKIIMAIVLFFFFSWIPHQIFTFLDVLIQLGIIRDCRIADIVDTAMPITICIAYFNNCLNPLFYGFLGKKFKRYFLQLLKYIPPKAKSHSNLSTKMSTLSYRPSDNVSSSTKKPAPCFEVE
The test is described as follows: AT1 receptor antagonists, dose response, selectivity assay for APJ receptor antagonist project, cell-based, uHTS hits (AID 463214).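 Further: antagonist potency against angiotensin II stimulated AT1 response.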 The format is functional.

Test [27] in a line: cells. It counts as functional, cell-based. This is another data set of the same source.
For test [28], the system named is BJ. The test is described as follows: cytotoxicity toward BJ-TERT fibroblasts, dose response, cell-based, RAS-independent, luminescence (AID 1933). The format is functional. The conditions noted are these: Homo sapiens.
Test [29] concerns the target T3, Kappa-type opioid receptor. The format is functional. This is another data set of the same source.
Test [30] concerns the target Heat shock protein HSP 90-alpha (Homo sapiens, UniProt P07900). It counts as functional, organism-based.
Test [31] relates to BJ. The test is described as follows: cytotoxicity toward Ras-transformed BJeLR fibroblasts, dose response, cell-based, alamar blue fluorescence, cherrypicked samples (AID 2631).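 Further: confirmatory dose-response assay in RAS-dependent BJ fibroblasts engineered with TERT, LT and ST, with cytotoxicity read by fluorescence.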 It counts as functional. The conditions noted are these: Homo sapiens.
Test [32] has as its system INS1. Nature of the test: beta cell apoptosis inhibitors, cytokine rescue, dose response, luminescence, retest (AID 449756).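 Further: cell death triggered by IL-1 beta plus TNF-alpha plus IFN-gamma mixture; protective hits raise ATP signal compared with cytokine alone wells.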 It counts as functional, cell-based. The conditions noted are these: Rattus norvegicus.

T3 sequence (P41145 whole entry): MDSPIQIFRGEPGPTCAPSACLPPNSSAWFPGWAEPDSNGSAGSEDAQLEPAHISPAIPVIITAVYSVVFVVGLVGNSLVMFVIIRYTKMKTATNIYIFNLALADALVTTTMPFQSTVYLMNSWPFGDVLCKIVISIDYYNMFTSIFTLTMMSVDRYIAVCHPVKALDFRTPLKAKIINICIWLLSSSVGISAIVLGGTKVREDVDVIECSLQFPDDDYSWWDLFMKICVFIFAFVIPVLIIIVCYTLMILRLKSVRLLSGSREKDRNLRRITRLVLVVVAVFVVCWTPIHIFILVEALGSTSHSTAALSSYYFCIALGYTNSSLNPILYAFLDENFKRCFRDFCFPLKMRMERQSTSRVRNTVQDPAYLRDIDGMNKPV
T4 sequence (Q8VNN2 whole entry): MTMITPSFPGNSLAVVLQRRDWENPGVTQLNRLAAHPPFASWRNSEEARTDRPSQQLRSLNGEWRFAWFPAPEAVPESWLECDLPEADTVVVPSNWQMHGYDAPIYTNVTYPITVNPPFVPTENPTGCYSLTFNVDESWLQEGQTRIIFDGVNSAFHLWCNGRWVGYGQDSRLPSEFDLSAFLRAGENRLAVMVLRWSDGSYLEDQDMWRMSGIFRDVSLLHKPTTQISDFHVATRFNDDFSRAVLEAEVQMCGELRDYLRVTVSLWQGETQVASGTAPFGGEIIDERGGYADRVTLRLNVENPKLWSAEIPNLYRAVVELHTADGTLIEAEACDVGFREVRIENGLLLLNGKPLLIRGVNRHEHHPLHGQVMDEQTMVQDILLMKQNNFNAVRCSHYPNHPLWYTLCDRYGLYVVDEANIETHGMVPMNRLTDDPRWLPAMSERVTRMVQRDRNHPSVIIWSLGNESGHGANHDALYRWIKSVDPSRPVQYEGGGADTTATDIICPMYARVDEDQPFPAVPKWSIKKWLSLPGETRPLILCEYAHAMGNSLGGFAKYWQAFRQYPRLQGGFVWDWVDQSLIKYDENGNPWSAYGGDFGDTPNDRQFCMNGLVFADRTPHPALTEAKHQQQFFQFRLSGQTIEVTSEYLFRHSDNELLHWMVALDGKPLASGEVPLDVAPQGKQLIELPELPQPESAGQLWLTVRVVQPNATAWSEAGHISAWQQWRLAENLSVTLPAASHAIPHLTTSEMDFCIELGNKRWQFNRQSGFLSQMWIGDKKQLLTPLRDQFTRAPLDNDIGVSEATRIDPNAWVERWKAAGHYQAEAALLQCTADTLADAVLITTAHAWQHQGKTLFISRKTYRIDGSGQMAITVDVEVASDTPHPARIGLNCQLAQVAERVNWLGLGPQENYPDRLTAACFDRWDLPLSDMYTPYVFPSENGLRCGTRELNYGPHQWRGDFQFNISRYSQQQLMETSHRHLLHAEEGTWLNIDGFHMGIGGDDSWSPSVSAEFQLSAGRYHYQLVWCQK
Sequence of Photoreceptor-specific nuclear receptor (Q9Y5X4 whole entry, the tested form may be a part): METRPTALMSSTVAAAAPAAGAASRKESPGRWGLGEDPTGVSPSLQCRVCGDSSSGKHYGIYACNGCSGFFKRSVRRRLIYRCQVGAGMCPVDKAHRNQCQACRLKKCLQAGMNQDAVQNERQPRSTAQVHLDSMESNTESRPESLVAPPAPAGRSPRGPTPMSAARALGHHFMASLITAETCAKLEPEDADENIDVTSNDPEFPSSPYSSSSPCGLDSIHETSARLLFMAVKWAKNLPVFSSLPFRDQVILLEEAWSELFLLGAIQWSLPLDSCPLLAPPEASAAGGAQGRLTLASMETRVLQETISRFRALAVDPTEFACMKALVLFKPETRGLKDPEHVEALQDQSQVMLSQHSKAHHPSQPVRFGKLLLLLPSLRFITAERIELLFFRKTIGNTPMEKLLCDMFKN
Sequence of Endoplasmic reticulum aminopeptidase 2 (Q6P179 whole entry): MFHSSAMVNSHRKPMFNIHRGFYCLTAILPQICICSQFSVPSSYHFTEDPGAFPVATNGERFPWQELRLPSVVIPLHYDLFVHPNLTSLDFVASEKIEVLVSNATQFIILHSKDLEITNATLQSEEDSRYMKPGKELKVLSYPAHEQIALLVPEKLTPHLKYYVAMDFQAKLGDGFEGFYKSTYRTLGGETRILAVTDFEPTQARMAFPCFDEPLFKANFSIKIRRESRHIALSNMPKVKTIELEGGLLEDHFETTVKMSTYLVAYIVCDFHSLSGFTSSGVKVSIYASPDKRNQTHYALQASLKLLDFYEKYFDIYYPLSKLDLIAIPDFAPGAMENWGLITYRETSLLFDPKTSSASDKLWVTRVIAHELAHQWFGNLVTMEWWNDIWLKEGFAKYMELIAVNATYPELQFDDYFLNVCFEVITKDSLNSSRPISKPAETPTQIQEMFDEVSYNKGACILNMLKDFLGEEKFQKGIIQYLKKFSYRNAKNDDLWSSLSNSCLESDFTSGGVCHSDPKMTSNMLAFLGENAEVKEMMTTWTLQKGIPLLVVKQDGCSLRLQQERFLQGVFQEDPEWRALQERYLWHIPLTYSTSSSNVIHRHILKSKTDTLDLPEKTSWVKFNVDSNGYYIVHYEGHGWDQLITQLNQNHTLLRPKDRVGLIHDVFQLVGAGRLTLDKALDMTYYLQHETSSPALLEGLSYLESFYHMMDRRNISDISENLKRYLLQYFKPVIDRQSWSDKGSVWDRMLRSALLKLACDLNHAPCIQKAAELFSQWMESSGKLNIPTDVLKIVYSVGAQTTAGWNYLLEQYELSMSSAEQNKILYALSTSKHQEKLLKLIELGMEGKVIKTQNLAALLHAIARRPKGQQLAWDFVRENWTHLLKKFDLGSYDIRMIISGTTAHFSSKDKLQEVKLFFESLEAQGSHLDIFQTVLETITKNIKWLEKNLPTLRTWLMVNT

In the case of `O=C1OC(=O)/C(=C\NCCN2CCOCC2)C=C1Br`, the IC50 was 61 µM (inactive) in [1] and 67 µM (inactive) in test [2].
As to `COc1ccc(NC2=C(N3CCN(C)CC3)C(=O)c3ccccc3C2=O)cc1`, the AC50 in [3] is 16.4 µM (active); in [4], 24.9 µM (active); in test [5] it was > 70 µM (inactive).
With `CC(C)[C@@H](C(=O)N[C@@H](CCc1ccc(O)cc1)C(=O)O)N(C)C(=O)[C@H](CO)NC(=O)[C@@H](O)[C@H](N)CCCCCCCCl`, the half-maximal activity concentration (AC50) in test [6] is 682 nM (active); in [7], 1.47 µM (active).
As for `CC(C)(C)NC(=O)CN(c1ccccc1Cl)S(C)(=O)=O`, the EC50 in [8] is > 30 µM (inactive).
On to `COc1ccc(C(=O)/N=c2\sc3ccccc3n2C)cc1`, for which the EC50 in test [9] and in test [10] was > 67.5 µM (inactive) in each case.
With `Cc1cccnc1Nc1nc(-c2ccccn2)cs1`, the EC50 in test [11] is 3.33 µM (active); in test [14], 3.13 µM (active); in test [17] it was 15.3 µM (inconclusive); in [20] it was 2.18 µM (active); in test [21], 6.23 µM (inconclusive); in test [22], 1.1 µM (active). The EC50 is > 31.5 µM (inactive) in test [23]; > 40 µM (inactive) in [24]; 6.4 µM (active) in test [25]; 3.45 µM (active) in test [27]; 1.46 µM (active) in [28]; 661 nM (active) in [31]. Further, the IC50 in [12] was 2.83 µM (active); in test [13], above 32 µM; in test [19], 3.9 µM (active); in [26], 2.24 µM (active); in test [29] it was 2.9 µM (active). Also, the half-maximal activity concentration (AC50) in test [15] is 2.3 µM (active); in test [16], 503 nM (active); in [18] it was 43.8 µM (active); in test [30], 4.65 µM (active); in [32], 290 nM (active).
